Test results published in PMC9501232, “Novel 4-Azapregnene Derivatives as Potential Anticancer Agents: Synthesis, Antiproliferative Activity and Molecular Docking Studies” (Molecules, 2022).

Legend:
[1] = test system: LNCaP cells; test: MTT cell proliferation assay, LNCaP; type: cell-based, human; settings: 72 h
Procedure: Cell lines, namely LNCaP, PC-3, T47-D and NHDF were obtained from American Type Culture Collection (ATCC; Manassas, VA, USA) and cultured in 75 cm^2 culture flasks at 37 °C in a humidified air incubator with 5% CO2. LNCaP, PC-3 and T47-D cells, which were used in passages 20th to 27th, 25th to 29th and 10th to 15th, respectively, were cultured in RPMI 1640 medium (Sigma-Aldrich, Inc., St. Louis, MO, USA) with 10% fetal bovine serum (FBS; Sigma-Aldrich, Inc. St. Louis, MO, USA) and 1% of the antibiotic mixture of 10,000 IU/mL penicillin G and […] of streptomycin (Sp, Sigma-Aldrich, Inc. St. Louis, MO, USA). Finally, NHDF cells (Normal Human Dermal Fibroblasts) were cultured in RPMI 1640 medium supplemented with 10% FBS, 2 mM L-glutamine, 10 mM HEPES, 1 mM sodium pyruvate and 1% of an antibiotic/antimycotic mixture (10,000 U/mL penicillin G, 100 mg/mL streptomycin and 25 µg/mL amphotericin B) (Ab; Sigma-Aldrich, Inc. St. Louis, MO, USA), and these cells were used in passages 10 to 12. For all cell types, the medium was renewed every 2–3 days until cells reach nearly the confluence state. Then, they were detached gently by trypsinization (trypsin-EDTA solution: 0.125 g/L of trypsin and 0.02 g/L of EDTA).
All the stock solutions were prepared by dissolving compounds in dimethyl sulfoxide (DMSO; Sigma-Aldrich, Inc., St. Louis, MO, USA) at 10 mM and stored at 4 °C. From these solutions, the several diluted compounds solutions in different concentrations were freshly prepared in a complete culture medium before each experiment.
As previously referred, cells were trypsinized after reaching a near confluence state and counted by the trypan blue exclusion assay in a Neubauer chamber. Then, 100 µL of cell suspension/well with an initial density of 2 × 10^4 cells/mL were seeded in 96-well culture plates (Nunc, Apogent, Denmark) and left to adhere for 48 h. After cells adherence, the medium was replaced by the distinct solutions of the compounds in the study (30 µM for preliminary studies and 0.01, 0.1, 1, 10, 50 and 100 µM for concentration–response studies) in the appropriate medium for approximately 72 h. 5-FU and finasteride were used as positive controls and untreated cells were used as the negative control. Each experiment was performed in quadruplicate and independently performed at least two times. The in vitro antiproliferative effects were evaluated by the MTT assay (Sigma-Aldrich, Inc. St. Louis, USA). After the incubation period, the medium was removed and 100 µL of phosphate buffer saline (NaCl 137 mM, KCl 2.7 mM, Na2HPO4 10 mM and KH2PO4 1.8 mM in deionized water and pH adjusted to 7.4) were used to wash the cells. Then, 100 µL of the MTT solution (5 mg/mL) was prepared in the appropriate serum-free medium and was added to each well, followed by incubation for 4 h at 37 °C. Hereafter, the MTT containing medium was removed and the formazan crystals were dissolved in DMSO. Then the absorbance was measured at 570 nm using a microplate spectrophotometer BIO-RAD xMarkTM. Cell viability values were expressed as percentages relative to the absorbance determined in the cells used as negative controls.
The data are expressed as a mean ± standard deviation (SD) and differences between groups were considered statistically significant when p < 0.05. The IC50 values were determined through sigmoidal fitting analysis with variable slope and considering a 95% confidence level. All data shown are representative of at least two independent experiments.

[2] = test system: LNCaP cells; test: Microscopic cell morphology observation; type: cell-based, human; settings: 24 and 72 h of treatment
Procedure: In our previous work, 16E-arylidene-4-azaandrost-5-ene derivatives were synthesized, their antiproliferative effects were evaluated and further studies were performed with the most promising steroid in LNCaP cells. Due to the similarity of 16E-arylidene-4-azaandrostenes and these novel 21E-arylidene-4-azapregnene derivatives, identical studies in this cell line were performed, namely a flow cytometry assay and microscopic cell morphology observation. To assess the viability of LNCaP cells when exposed to steroid 3g, a flow cytometry assay after PI staining was performed. Cells were treated with 3g and 5-FU during 24 and 72 h, and then a microscopic cell observation was performed to assess the possible morphological alterations and cell density changes triggered by incubation with 3g and compare with controls (Figure 6).
Similar to the previous study, the analysis of cell viability was accomplished by flow cytometry after staining dead cells with propidium iodide (PI; Invitrogen, Carlsbad, USA). Succinctly, 1 mL of a cell suspension was seeded in 12-well culture plates (initial cell density of 5 × 10^4 cells/mL of LNCaP cells for 24 h assay and 2 × 10^4 cells/mL of the same cell line for 72 h assay) in a complete culture medium. […] The percentages of each region were calculated for a total of R1 + R2 + R3. […]

- IC50 ([1]; Homo sapiens, MTT): 10.2 µM
SMILES: C[C@]12CC[C@H]3[C@@H](CC=C4NC(=O)CC[C@@]43C)[C@@H]1CC[C@@H]2C(=O)/C=C/c1cccnc1 [Compound 3g, 21E-[(Pyridin-3-yl)methylidene]-4-azapregn-5-ene-3,20-dione]
- MTT screening, cell proliferation ([1]; 30 µM, average ± SD): 0.7 ± 1.0 percentage of negative control
- Cell morphology and cell density [2]: detached, forming clusters and presenting a round form
